Entries after “also recorded” stand apart in the source; their conditions may differ.
What was measured:
[1] = system: serum uric acid (sUA); assay: Phase 1 multiple ascending dose study, pharmacodynamics (serum uric acid) in healthy adult males; assay type: in vivo, human; settings: for reduction of sUA concentration at trough / reduction of sUA concentration, maximum: fasted, Day 10
Source text: An additional 6 subjects received placebo.
Steady-state sUA lowering effect was achieved after approximately 5 days.

[2] = molecular target: T1, human URAT1 uptake transporter (Homo sapiens, UniProt Q96S37); assay: Inhibition of URAT1 mediated uric acid uptake in MDCKII cells stably expressing human URAT1; assay type: cell-based
T1 construct: expressed in transfected cells
T1 sequence (Q96S37 1-553): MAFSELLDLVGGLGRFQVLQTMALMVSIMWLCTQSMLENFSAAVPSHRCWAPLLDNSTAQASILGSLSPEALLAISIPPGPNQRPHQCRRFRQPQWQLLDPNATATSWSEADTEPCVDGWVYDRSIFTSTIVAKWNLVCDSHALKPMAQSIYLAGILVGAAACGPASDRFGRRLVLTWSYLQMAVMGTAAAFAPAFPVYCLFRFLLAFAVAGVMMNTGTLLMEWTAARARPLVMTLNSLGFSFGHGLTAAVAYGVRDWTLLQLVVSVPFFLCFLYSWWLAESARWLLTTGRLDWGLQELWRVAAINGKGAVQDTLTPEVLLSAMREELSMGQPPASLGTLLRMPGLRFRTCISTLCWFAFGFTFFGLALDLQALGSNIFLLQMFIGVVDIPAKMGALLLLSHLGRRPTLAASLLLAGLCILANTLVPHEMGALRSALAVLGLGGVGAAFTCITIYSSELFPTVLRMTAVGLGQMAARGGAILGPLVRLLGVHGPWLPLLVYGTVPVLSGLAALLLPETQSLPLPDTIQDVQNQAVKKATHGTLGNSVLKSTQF
Description: Uptake experiments were performed using MDCKII cells stably expressing the human URAT1 uptake transporter. Cells were cultured at 37±1° C. in an atmosphere of 95:5 air:CO2 and were plated onto standard 96-well tissue culture plates at the cell number described in Table 1.
Radiolabeled probe substrate transport was determined by measuring an aliquot (35 μL) from each well for liquid scintillation counting.

[3] = In vitro metabolism in human liver microsomes; assay type: in vitro ADME
Description: After pre-warming the mixture at 37° C. for 5 minutes, the reaction was initiated by the addition of 1 mM of NADPH and incubated for 60 minutes at 37° C. in a shaking water bath. The reaction was terminated by the addition of 0.5 mL ice-cold acetonitrile. Time 0 incubation was also performed by adding acetonitrile before the addition of microsomes to the incubation mixture as a reference sample for each species. Following vortex and centrifugation at 15,000 g for 3 minutes at room temperature, resulting supernatant was concentrated under nitrogen flow at 33° C., until approximately 0.5 mL of sample remained. The extract was then transferred to a 1.5-mL centrifuge vial for centrifugation at 15,000 g for 3 minutes. Finally, aliquots of the supernatant were transferred to HPLC vials for HPLC-MS analyses.
MS Analysis: Mass spectral analyses were performed on an Agilent single quadruple mass spectrometer equipped with an Agilent 1100 HPLC system. The mass spectrometer was fitted with an electrospray ionization (ESI) source and operated in a negative scan mode between 400 and 500 amu: […]

For `[2H]c1c([2H])c([2H])c2c(C(=O)c3cc(Br)c(O)c(Br)c3)c(C(C)O)oc2c1[2H]` (racemic) [Compound 1, (3,5-dibromo-4-hydroxyphenyl)(2-(1-hydroxyethyl)benzofuran-3-yl-4,5,6,7-d4)methanone], which “reduction of sUA concentration at trough” value ([1]; 25 mg oral capsules once daily) is on record?
Its value is 41%.

And the “reduction of sUA concentration, maximum” value ([1]; 25 mg oral capsules once daily)?
Its value is “up to 44%”.

What about the “reduction of sUA concentration at trough” value ([1]; 50 mg oral capsules once daily) of the same compound?
Its value is 58%.

What about the “reduction of sUA concentration, maximum” value ([1]; 50 mg oral capsules once daily) of the same compound?
Its value is “up to 67%”.

What about the “reduction of sUA concentration at trough” value ([1]; 75 mg oral capsules once daily) of the same compound?
The value was 65%.

And the “reduction of sUA concentration, maximum” value ([1]; 75 mg oral capsules once daily)?
The value was “up to 69%”.

And the “time to steady-state sUA lowering effect” value ([1]; once-daily 25, 50 or 75 mg)?
Its value is “approximately 5 days”.

What about the “in vitro URAT1 potency compared with benzbromarone” value [2] of the same compound?
The value was “better in vitro URAT1 potency than benzbromarone”.

And the “stability in human microsomes” value ([3]; 60 minutes incubation)?
Its value is “stable; also recorded: more stable than benzbromarone”.

What about the “Parent, % MS response (parent left)” value ([3]; human liver microsomes 0.5 mg/mL, NADPH, 60 minutes, 37° C.) of the same compound?
Its value is 82.5%.

Reference: patent publication US20230218563A1, “METHODS FOR TREATING OR PREVENTING CHRONIC KIDNEY DISEASE” (Arthrosi Therapeutics, Inc., priority 2020, published 2023)
